IC50 data for 19 compounds are collected here from patent publication US12344623B2, “Thiazolopyridine derivatives as adenosine receptor antagonists” (Merck Patent GmbH, priority 2019, dated 2025).

Where two headings read alike, the source gives them in different places. Some results are limits rather than exact numbers.

Common to all, as to assay type: cell-based
The target of assay [1] is T1, human A2B receptor (Homo sapiens, UniProt P29275).
T1 construct: expressed in transfected cells; host or cells: HEK293
T1 sequence (P29275 1-332): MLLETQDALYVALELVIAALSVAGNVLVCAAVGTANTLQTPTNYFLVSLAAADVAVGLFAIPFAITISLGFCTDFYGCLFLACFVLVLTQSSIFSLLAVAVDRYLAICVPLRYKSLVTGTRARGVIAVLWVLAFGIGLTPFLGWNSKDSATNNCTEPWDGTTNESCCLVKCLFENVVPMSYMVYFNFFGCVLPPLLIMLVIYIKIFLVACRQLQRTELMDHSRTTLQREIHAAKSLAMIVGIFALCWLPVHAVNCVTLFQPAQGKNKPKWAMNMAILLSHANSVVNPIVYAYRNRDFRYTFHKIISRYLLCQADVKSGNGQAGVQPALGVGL
As to the kind of experiment: Functional A2B receptor activity, recombinant HEK293 cells, cAMP (HTRF), agonist NECA. In short, it runs like this: (§1)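 Cells were seeded, then treated with forskolin, test compound and agonist. After a 30 min incubation, HTRF detection reagents were added and intracellular cAMP was read. Values were scaled between an inhibitor control and DMSO before fitting.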
In general terms: In TR-FRET formats the signal depends on donor and acceptor labels being close together.

Assay [2] has as its target T2, human A3 receptor (Homo sapiens, UniProt P0DMS8).
T2 construct: expressed in transfected cells; host or cells: CHO
T2 sequence (P0DMS8 1-318): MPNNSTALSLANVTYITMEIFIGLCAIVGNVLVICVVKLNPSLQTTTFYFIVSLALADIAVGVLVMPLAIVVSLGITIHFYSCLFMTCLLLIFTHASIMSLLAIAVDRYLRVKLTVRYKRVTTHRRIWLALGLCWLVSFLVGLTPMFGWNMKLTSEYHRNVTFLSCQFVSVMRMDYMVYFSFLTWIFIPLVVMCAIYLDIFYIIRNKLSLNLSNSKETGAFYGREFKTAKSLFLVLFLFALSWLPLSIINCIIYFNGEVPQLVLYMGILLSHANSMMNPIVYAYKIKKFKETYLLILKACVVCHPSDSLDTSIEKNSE
Nature of the assay: Functional A3 receptor activity, recombinant CHO cells, cAMP (HTRF), forskolin, agonist IB-MECA. Particulars: recombinant CHO cells, forskolin, agonist IB-MECA; read-out: Functional A3 receptor activity, CHO, cAMP, IC50. In short, it runs like this:
(§2)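 Recombinant CHO lines carrying either receptor receive forskolin, compound and the matching agonist, CPA or IB-MECA. After 30 min, HTRF reagents are added and cAMP is quantified. Values are normalized to inhibitor and neutral DMSO controls, then fitted.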

The target of assay [3] is T3, human A2A receptor (Homo sapiens, UniProt P29274). As to the kind of experiment: Human T cells, endogenous A2A receptor, cAMP, agonist NECA. As for the experimental part: The endogenous functional activity of the Gs-coupled human A2A receptor was measured in T cells, where this receptor is highly expressed. Determination of receptor activity was done by quantification of cAMP, which is a second messenger for adenosine receptors.
In short, human pan T cells were isolated from human PBMC (MACS Pan T Cell Isolation Kit, Miltenyi Biotec) that have been derived from fresh whole blood. The T cells were seeded in 384-well microtiter plates and treated with test compounds. […] Finally, HTRF reagents (cAMP Femto Kit, CisBio) were added to the wells, and after 1 h cellular cAMP levels were determined using the ENVISION (Perkin Elmer) plate reader.
The obtained raw data were normalized against the inhibitor control and the neutral control (DMSO) and the normalized data were fitted using Genedata Screener software.

Assay [4] addresses T3, human A2A receptor. Nature of the assay: Functional A2A receptor activity, recombinant HEK293 cells, cAMP (HTRF), agonist NECA. Further details: expressed in transfected cells; host or cells: HEK293. In short, it runs like this: as §1
In assay [5] the target is T4, human A1 receptor (Homo sapiens, UniProt P30542).
T4 construct: expressed in transfected cells; host or cells: CHO
T4 sequence (P30542 1-326): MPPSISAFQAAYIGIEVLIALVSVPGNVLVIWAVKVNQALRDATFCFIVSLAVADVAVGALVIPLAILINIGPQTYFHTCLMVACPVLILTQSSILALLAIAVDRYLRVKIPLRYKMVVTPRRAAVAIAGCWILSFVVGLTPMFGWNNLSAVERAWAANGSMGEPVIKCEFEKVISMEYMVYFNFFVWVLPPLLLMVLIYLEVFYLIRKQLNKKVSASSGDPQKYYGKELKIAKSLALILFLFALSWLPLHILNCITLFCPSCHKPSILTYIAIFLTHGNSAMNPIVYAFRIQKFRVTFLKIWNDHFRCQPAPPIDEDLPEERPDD
Nature of the assay: Functional A1 receptor activity, recombinant CHO cells, cAMP (HTRF), forskolin, agonist CPA. The settings on record: recombinant CHO cells, forskolin, agonist CPA; read-out: Functional A1 receptor activity, CHO, cAMP, IC50. In short, it runs like this: as §2

The mark [6] stands for this setting: read-out: Functional A2B receptor activity, HEK293, cAMP, IC50.
The mark [7] stands for this setting: read-out: hTcell data, cAMP, IC50.
Where [8] appears, read: read-out: Functional A2A receptor activity, HEK293, cAMP, IC50.

T3 sequence (P29274 whole entry): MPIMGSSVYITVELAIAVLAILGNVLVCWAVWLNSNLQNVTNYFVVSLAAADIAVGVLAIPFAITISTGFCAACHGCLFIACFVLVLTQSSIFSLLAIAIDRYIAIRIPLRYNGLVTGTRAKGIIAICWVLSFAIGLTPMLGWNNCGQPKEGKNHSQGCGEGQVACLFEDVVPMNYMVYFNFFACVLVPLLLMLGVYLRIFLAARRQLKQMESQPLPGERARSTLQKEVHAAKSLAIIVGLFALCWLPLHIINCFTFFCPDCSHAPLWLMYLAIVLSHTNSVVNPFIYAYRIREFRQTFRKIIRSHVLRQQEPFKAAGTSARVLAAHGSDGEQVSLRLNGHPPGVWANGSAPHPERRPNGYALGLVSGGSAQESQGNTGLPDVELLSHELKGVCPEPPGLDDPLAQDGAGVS

As a reminder, the IC50 is the concentration needed to halve the response being measured. On to `COc1ncc(-c2cnn(Cc3cccnc3)c2)c2sc(NC(=O)N3CCC4(CCOCC4)C3)nc12` [Compound 68, 8-Oxa-2-aza-spiro[4.5]decane-2-carboxylic acid [4-methoxy-7-(1-pyridin-3-ylmethyl-1H-pyrazol-4-yl)-thiazolo[4,5-c]pyridin-2-yl]-amide], for which the IC50 in assay [1] (setting [6]) was less than 10 nM; in assay [2] it was more than 1000 nM; in assay [3] (setting [7]) it was less than 10 nM; in assay [4] (setting [8]), less than 10 nM.
Regarding `COc1ncc(C2=CCOCC2)c2sc(NC(=O)c3c[nH]c(-c4ccncc4)n3)nc12` [Compound 165, 2-Pyridin-4-yl-1H-imidazole-4-carboxylic acid [7-(3,6-dihydro-2H-pyran-4-yl)-4-methoxy-thiazolo[4,5-c]pyridin-2-yl]-amide], the half-maximal inhibitory concentration (IC50) in assay [1] (setting [6]) is less than 10 nM; in assay [2] it was more than 1000 nM; in assay [3] (setting [7]), less than 10 nM; in assay [4] (setting [8]) it was less than 10 nM.
Take `COC(=O)N(C)Cc1ccc(C(=O)Nc2nc3c(OC)ncc(-c4ccccc4)c3s2)cc1` [Compound 97, [4-(4-Methoxy-7-phenyl-thiazolo[4,5-c]pyridin-2-ylcarbamoyl)-benzyl]-methyl-carbamic acid methyl ester]: the IC50 in assay [1] (setting [6]) was less than 100 nM; in assay [5] it was more than 1000 nM; in assay [2], more than 1000 nM; in assay [3] (setting [7]), less than 100 nM; in assay [4] (setting [8]) it was less than 10 nM.
Regarding `COc1cnc(N2CCOCC2)c2sc(NC(=O)N3CCC(CO)CC3)nc12` [drawing 217], the 50% inhibitory concentration (IC50) in assay [3] (setting [7]) is less than 1000 nM.
With `COc1nc(F)c(C2CCOCC2)c2sc(NC(=O)N3CC[C@@]4(CCOC4)C3)nc12` [Compound 37, (R)-2-Oxa-7-aza-spiro[4.4]nonane-7-carboxylic acid [6-fluoro-4-methoxy-7-(tetrahydro-pyran-4-yl)-thiazolo[4,5-c]pyridin-2-yl]-amide], the IC50 in assay [1] (setting [6]) is less than 100 nM; in assay [5] it was more than 1000 nM; in assay [2], more than 1000 nM; in assay [3] (setting [7]) it was less than 10 nM; in assay [4] (setting [8]), less than 10 nM.
For `COc1ncc(-c2cnn(Cc3ccccn3)c2)c2sc(NC(=O)N3CCC4(CCOCC4)C3)nc12` [Compound 69, 8-Oxa-2-aza-spiro[4.5]decane-2-carboxylic acid [4-methoxy-7-(1-pyridin-2-ylmethyl-1H-pyrazol-4-yl)-thiazolo[4,5-c]pyridin-2-yl]-amide], the 50% inhibitory concentration (IC50) in assay [1] (setting [6]) is less than 10 nM; in assay [5], less than 100 nM; in assay [2], less than 1000 nM; in assay [3] (setting [7]), less than 10 nM; in assay [4] (setting [8]), less than 10 nM.
Turning to `[2H]C([2H])([2H])Oc1ncc(C2=CCOCC2)c2sc(NC(=O)N3CC[C@@]4(CCCOC4)C3)nc12` [Compound 174, (5S)-N-[7-(3,6-dihydro-2H-pyran-4-yl)-4-(2H3)methoxy-[1,3]thiazolo[4,5-c]pyridin-2-yl]-7-oxa-2-azaspiro[4.5]decane-2-carboxamide], the IC50 in assay [1] was less than 100 nM; in assay [5] it was more than 1000 nM; in assay [2], more than 1000 nM; in assay [3], less than 10 nM; in assay [4], less than 10 nM.
As for `COc1cnc(N2CCOCC2)c2sc(NC(=O)N3CCC4(CCCO4)CC3)nc12` [drawing 218], the concentration for half-maximal inhibition (IC50) in assay [3] (setting [7]) is less than 1000 nM.
On to `COc1ncc(C2COCCO2)c2sc(NC(=O)c3ccc(-c4nnn[nH]4)cc3)nc12` (centres unmarked) [Compound 164, N-(7-[1,4]Dioxan-2-yl-4-methoxy-thiazolo[4,5-c]pyridin-2-yl)-4-(1H-tetrazol-5-yl)-benzamide], for which the 50% inhibitory concentration (IC50) is less than 10 nM in assay [1] (setting [6]); more than 1000 nM in assay [5]; more than 1000 nM in assay [2]; less than 100 nM in assay [3] (setting [7]); less than 10 nM in assay [4] (setting [8]).
Regarding `COc1ncc(C2=CCOCC2)c2sc(NC(=O)c3ccc(C(=O)O)cc3)nc12` [Compound 72, 4-{[7-(3,6-dihydro-2H-pyran-4-yl)-4-methoxy-[1,3]thiazolo[4,5-c]pyridin-2-yl]carbamoyl}benzoic acid], the concentration for half-maximal inhibition (IC50) in assay [1] (setting [6]) is less than 10 nM; in assay [5] it was less than 1000 nM; in assay [2], more than 1000 nM; in assay [3] (setting [7]), less than 100 nM; in assay [4] (setting [8]), less than 10 nM.
For `COc1cnc(N2CCOCC2)c2sc(NC(=O)N3CCC(O)CC3)nc12`, the IC50 in assay [3] (setting [7]) is less than 1000 nM.
With `COc1ncc(C2=CCOCC2)c2sc(NC(=O)c3cnc(C(=O)O)[nH]3)nc12` [Compound 168, 5-[7-(3,6-Dihydro-2H-pyran-4-yl)-4-methoxy-thiazolo[4,5-c]pyridin-2-ylcarbamoyl]-1H-imidazole-2-carboxylic acid], the half-maximal inhibitory concentration (IC50) in assay [1] (setting [6]) was less than 100 nM; in assay [2], more than 1000 nM; in assay [3] (setting [7]), less than 100 nM; in assay [4] (setting [8]) it was less than 10 nM.
As to `COc1ncc(C2=CCOCC2)c2sc(NC(=O)c3ccc(-n4ccnn4)cc3)nc12` [Compound 71, N-[7-(3,6-dihydro-2H-pyran-4-yl)-4-methoxy-[1,3]thiazolo[4,5-c]pyridin-2-yl]-4-(1H-1,2,3-triazol-1-yl)benzamide], the IC50 in assay [1] (setting [6]) is less than 10 nM; in assay [5], less than 1000 nM; in assay [2], more than 1000 nM; in assay [3] (setting [7]) it was less than 10 nM; in assay [4] (setting [8]), less than 10 nM.
As to `COc1ccc(N2CCOCC2)c2sc(NC(=O)N3CCCCC3)nc12` [drawing 221], the IC50 in assay [3] (setting [7]) is less than 1000 nM.
Consider `COc1ccc(-c2ccccc2)c2sc(NC(=O)NCCN3CCCCC3)nc12` [drawing 216], for which the half-inhibitory concentration (IC50) in assay [3] (setting [7]) was less than 1000 nM.
`COc1ncc(C2=CCC(F)(F)CC2)c2sc(NC(=O)N3CCC4(CCOCC4)C3)nc12` [Compound 63, 8-Oxa-2-aza-spiro[4.5]decane-2-carboxylic acid [7-(4,4-difluoro-cyclohex-1-enyl)-4-methoxy-thiazolo[4,5-c]pyridin-2-yl]-amide]: the IC50 in assay [1] (setting [6]) was less than 100 nM; in assay [5] it was less than 1000 nM; in assay [2], more than 1000 nM; in assay [3] (setting [7]) it was less than 10 nM; in assay [4] (setting [8]), less than 10 nM.
For `COc1ncc(C2=CCOCC2)c2sc(NC(=O)Nc3ccc(N4CCCC4=O)cc3)nc12` [Compound 89, 3-[7-(3,6-dihydro-2H-pyran-4-yl)-4-methoxy-[1,3]thiazolo[4,5-c]pyridin-2-yl]-1-[4-(2-oxopyrrolidin-1-yl)phenyl]urea], the 50% inhibitory concentration (IC50) in assay [1] (setting [6]) was less than 100 nM; in assay [5], more than 1000 nM; in assay [2], more than 1000 nM; in assay [3] (setting [7]), less than 10 nM; in assay [4] (setting [8]), less than 10 nM.
For the compound `COc1ncc(C2=CCOCC2)c2sc(NC(=O)N3CCC(N4C(=O)CSC4=O)CC3)nc12` [Compound 91, N-[7-(3,6-dihydro-2H-pyran-4-yl)-4-methoxy-[1,3]thiazolo[4,5-c]pyridin-2-yl]-4-(2,4-dioxo-1,3-thiazolidin-3-yl)piperidine-1-carboxamide], the IC50 in assay [1] (setting [6]) was less than 10 nM; in assay [5], more than 1000 nM; in assay [2] it was more than 1000 nM; in assay [3] (setting [7]), less than 10 nM; in assay [4] (setting [8]), less than 10 nM.
As for `COc1cnc(N2CCOCC2)c2sc(NC(=O)N3CCOCC3)nc12` [drawing 223], the concentration for half-maximal inhibition (IC50) in assay [3] (setting [7]) is less than 1000 nM.
